Results on seven molecules are retold here after patent publication US6339045B1, “N-(unsubstituted or substituted)-4-substituted-6-(unsubstituted or substituted)phenoxy-2-pyridinecarboxamides or thiocarboxamides, processes for producing the same, and herbicides” (Kureha Kagaku Kogyo Kabushiki Kaisha, priority 1995, dated 2002).

Assay in all cases: Herbicidal effect by foliage and soil treatment
What all share (assay type): in vivo
Common to all, as to conditions: 10 g ai/10a, evaluated after 14 days

Assay [1] concerns field bindweed (Convolvulus arvensis). The method in brief: (§1)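 Seedlings grown in granular soil in a 19–25 °C greenhouse to the cotyledon–two-leaf stage were sprayed over foliage and soil with compound in Tween 20/water at a set application rate. Growth was scored on a rating scale against untreated plants after 14 days.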
In assay [2] the test system is cleavers (Galium aparine). The method in brief: as §1
The test system of assay [3] is velvetleaf (Abutilon theophrasti). The method in brief:
as §1

Assay [4] has as its system wild chamomile (Matricaria chamomilla). The method in brief: as §1
Assay [5] relates to ivyleafspeedwell (Veronica hederaefolia). The essentials: as §1
Assay [6] has as its system black nightshade (Solanum nigrum). The method in brief:
as §1

For assay [7], the system named is sicklepod (Cassia obtusifolia). The method in brief: as §1
Assay [8] relates to kediock (Sinapis arvensis). The method in brief: as §1
For assay [9], the system named is common blackjack (Bidens pilosa). The method in brief: as §1
Assay [10] deals with common chickweed (Stellaria media). The method in brief:
as §1

The test system of assay [11] is redroot pigweed (Amaranthus retroflexus). The essentials: as §1

With `CNc1cc(Oc2cccc(C(F)(F)F)c2)nc(C(=O)NC(C)C)c1` [Compound I-56, N-(i-propyl)-4-methylamino-6-{3-(trifluoromethyl)phenoxy}-2-pyridine carboxamide], the “herbicidal activity rating, CA (Convolvulus arvensis)” value (“herbicidal activity rating, CA” below) in assay [1] is 5 (percentage of weeds killed was not less than 80%). Moreover, in assay [2], the “herbicidal activity rating, GA (Galium aparine)” value (“herbicidal activity rating, GA” below) is 5 (percentage of weeds killed was not less than 80%). Also, the “herbicidal activity rating, AT (Abutilon theophrasti)” value in assay [3] is recorded as 5 (percentage of weeds killed was not less than 80%). For the same molecule, in [4], the “herbicidal activity rating, MC (Matricaria chamomilla)” value (“herbicidal activity rating, MC” below) was 4 (percentage of weeds killed was not less than 60% and less than 80%). In addition, the “herbicidal activity rating, VH (Veronica hederaefolia)” value (from here on “herbicidal activity rating, VH”) in [5] was 5 (percentage of weeds killed was not less than 80%). Also, in assay [6], the “herbicidal activity rating, SN (Solanum nigrum)” value (shortened to “herbicidal activity rating, SN”) is listed as 5 (percentage of weeds killed was not less than 80%). Also, the “herbicidal activity rating, CO (Cassia obtusifolia)” value (from here on “herbicidal activity rating, CO”) in assay [7] was 4 (percentage of weeds killed was not less than 60% and less than 80%). Also, the “herbicidal activity rating, SA (Sinapis arvensis)” value (“herbicidal activity rating, SA” for short) in assay [8] was 5 (percentage of weeds killed was not less than 80%). Further, the “herbicidal activity rating, BP (Bidens pilosa)” value (“herbicidal activity rating, BP” for short) in [9] was 4 (percentage of weeds killed was not less than 60% and less than 80%). For the same molecule, the “herbicidal activity rating, SM (Stellaria media)” value (shortened to “herbicidal activity rating, SM”) in assay [10] was 4 (percentage of weeds killed was not less than 60% and less than 80%). Moreover, the “herbicidal activity rating, AR (Amaranthus retroflexus)” value (“herbicidal activity rating, AR” below) in [11] is 5 (percentage of weeds killed was not less than 80%).
Consider `COc1cc(Oc2cccc(C(F)(F)F)c2)nc(C(=O)Nc2ccccc2)c1` [Compound I-1, N-phenyl-4-methoxy-6-{3-(trifluoromethyl)phenoxy}-2-pyridine carboxamide], for which, in [1], the “herbicidal activity rating, CA” value was 4 (percentage of weeds killed was not less than 60% and less than 80%). Besides, the “herbicidal activity rating, GA” value in assay [2] is reported as 5 (percentage of weeds killed was not less than 80%). The “herbicidal activity rating, AT (Abutilon theophrasti)” value in [3] was 4 (percentage of weeds killed was not less than 60% and less than 80%). The “herbicidal activity rating, MC” value in [4] is 4 (percentage of weeds killed was not less than 60% and less than 80%). The “herbicidal activity rating, VH” value in assay [5] is 5 (percentage of weeds killed was not less than 80%). Also, the “herbicidal activity rating, SN” value in assay [6] is 5 (percentage of weeds killed was not less than 80%). Besides, the “herbicidal activity rating, CO” value in [7] is listed as 5 (percentage of weeds killed was not less than 80%). In addition, the “herbicidal activity rating, SA” value in assay [8] was 5 (percentage of weeds killed was not less than 80%). Moreover, the “herbicidal activity rating, BP” value in assay [9] was 5 (percentage of weeds killed was not less than 80%). In assay [10], the “herbicidal activity rating, SM” value is 4 (percentage of weeds killed was not less than 60% and less than 80%). Also, in [11], the “herbicidal activity rating, AR” value is on record as 5 (percentage of weeds killed was not less than 80%).
Regarding `CSc1cc(Oc2cccc(C(F)(F)F)c2)nc(C(=O)NC(C)C)c1` [Compound I-55, N-(i-propyl)-4-methylmercapto-6-{3-(trifluoromethyl)phenoxy}-2-pyridine carboxamide], the “herbicidal activity rating, CA” value in assay [1] is 4 (percentage of weeds killed was not less than 60% and less than 80%). Further, the “herbicidal activity rating, GA” value in assay [2] is on record as 5 (percentage of weeds killed was not less than 80%). Further, the “herbicidal activity rating, AT (Abutilon theophrasti)” value in assay [3] is 4 (percentage of weeds killed was not less than 60% and less than 80%). Besides, the “herbicidal activity rating, MC” value in assay [4] was 3 (percentage of weeds killed was not less than 40% and less than 60%). Moreover, the “herbicidal activity rating, VH” value in [5] is given as 5 (percentage of weeds killed was not less than 80%). The “herbicidal activity rating, SN” value in [6] is 5 (percentage of weeds killed was not less than 80%). For the same molecule, the “herbicidal activity rating, CO” value in assay [7] is listed as 5 (percentage of weeds killed was not less than 80%). Moreover, the “herbicidal activity rating, SA” value in [8] was 4 (percentage of weeds killed was not less than 60% and less than 80%). Further, the “herbicidal activity rating, BP” value in assay [9] is 4 (percentage of weeds killed was not less than 60% and less than 80%). Further, the “herbicidal activity rating, SM” value in [10] is 4 (percentage of weeds killed was not less than 60% and less than 80%). In assay [11], the “herbicidal activity rating, AR” value is listed as 5 (percentage of weeds killed was not less than 80%).
As to `COc1cc(Oc2cccc(C(F)(F)F)c2)nc(C(=O)NCS(C)(=O)=O)c1` [Compound I-127], the “herbicidal activity rating, CA” value in assay [1] is on record as 5 (percentage of weeds killed was not less than 80%). Moreover, in [2], the “herbicidal activity rating, GA” value is given as 5 (percentage of weeds killed was not less than 80%). Also, the “herbicidal activity rating, AT (Abutilon theophrasti)” value in [3] is 5 (percentage of weeds killed was not less than 80%). Besides, the “herbicidal activity rating, MC” value in assay [4] was 4 (percentage of weeds killed was not less than 60% and less than 80%). Also, the “herbicidal activity rating, VH” value in assay [5] was 5 (percentage of weeds killed was not less than 80%). Moreover, the “herbicidal activity rating, SN” value in assay [6] is reported as 5 (percentage of weeds killed was not less than 80%). Moreover, in assay [7], the “herbicidal activity rating, CO” value was 5 (percentage of weeds killed was not less than 80%). The “herbicidal activity rating, SA” value in assay [8] was 5 (percentage of weeds killed was not less than 80%). In assay [9], the “herbicidal activity rating, BP” value is on record as 5 (percentage of weeds killed was not less than 80%). For the same molecule, the “herbicidal activity rating, SM” value in [10] is on record as 5 (percentage of weeds killed was not less than 80%). In [11], the “herbicidal activity rating, AR” value is 5 (percentage of weeds killed was not less than 80%).
Take `C=CCONC(=O)c1cc(OC)cc(Oc2cccc(C(F)(F)F)c2)n1` [Compound I-100]: the “herbicidal activity rating, CA” value in [1] is 4 (percentage of weeds killed was not less than 60% and less than 80%). The “herbicidal activity rating, GA” value in assay [2] is 5 (percentage of weeds killed was not less than 80%). For the same molecule, in assay [3], the “herbicidal activity rating, AT (Abutilon theophrasti)” value was 5 (percentage of weeds killed was not less than 80%). Further, the “herbicidal activity rating, MC” value in assay [4] was 4 (percentage of weeds killed was not less than 60% and less than 80%). Further, the “herbicidal activity rating, VH” value in assay [5] is listed as 5 (percentage of weeds killed was not less than 80%). In addition, the “herbicidal activity rating, SN” value in [6] is 5 (percentage of weeds killed was not less than 80%). Further, the “herbicidal activity rating, CO” value in assay [7] is reported as 5 (percentage of weeds killed was not less than 80%). Besides, the “herbicidal activity rating, SA” value in assay [8] is on record as 5 (percentage of weeds killed was not less than 80%). Moreover, the “herbicidal activity rating, BP” value in [9] is 4 (percentage of weeds killed was not less than 60% and less than 80%). Moreover, in assay [10], the “herbicidal activity rating, SM” value is 4 (percentage of weeds killed was not less than 60% and less than 80%). Further, the “herbicidal activity rating, AR” value in assay [11] is on record as 5 (percentage of weeds killed was not less than 80%).
Take `COc1cc(Oc2cccc(C(F)(F)F)c2)nc(C(=O)NCCSCC(F)(F)F)c1` [Compound I-94]: the “herbicidal activity rating, CA” value in assay [1] is 5 (percentage of weeds killed was not less than 80%). For the same molecule, the “herbicidal activity rating, GA” value in [2] is given as 5 (percentage of weeds killed was not less than 80%). Also, in [3], the “herbicidal activity rating, AT (Abutilon theophrasti)” value is 5 (percentage of weeds killed was not less than 80%). The “herbicidal activity rating, MC” value in assay [4] was 4 (percentage of weeds killed was not less than 60% and less than 80%). For the same molecule, the “herbicidal activity rating, VH” value in assay [5] is recorded as 5 (percentage of weeds killed was not less than 80%). Further, in assay [6], the “herbicidal activity rating, SN” value is recorded as 5 (percentage of weeds killed was not less than 80%). For the same molecule, in assay [7], the “herbicidal activity rating, CO” value is recorded as 5 (percentage of weeds killed was not less than 80%). The “herbicidal activity rating, SA” value in assay [8] is listed as 5 (percentage of weeds killed was not less than 80%). In assay [9], the “herbicidal activity rating, BP” value was 4 (percentage of weeds killed was not less than 60% and less than 80%). Moreover, the “herbicidal activity rating, SM” value in assay [10] was 4 (percentage of weeds killed was not less than 60% and less than 80%). The “herbicidal activity rating, AR” value in assay [11] is 5 (percentage of weeds killed was not less than 80%).
Take `CCNC(=O)c1cc(OC)cc(Oc2cccc(C(F)(F)F)c2)n1` [Compound I-51]: in assay [1], the “herbicidal activity rating, CA” value was 4 (percentage of weeds killed was not less than 60% and less than 80%). In addition, the “herbicidal activity rating, GA” value in assay [2] was 5 (percentage of weeds killed was not less than 80%). Besides, the “herbicidal activity rating, AT (Abutilon theophrasti)” value in assay [3] was 5 (percentage of weeds killed was not less than 80%). Further, the “herbicidal activity rating, MC” value in assay [4] was 4 (percentage of weeds killed was not less than 60% and less than 80%). Besides, the “herbicidal activity rating, VH” value in assay [5] is given as 5 (percentage of weeds killed was not less than 80%). The “herbicidal activity rating, SN” value in [6] was 5 (percentage of weeds killed was not less than 80%). The “herbicidal activity rating, CO” value in assay [7] is reported as 5 (percentage of weeds killed was not less than 80%). Also, the “herbicidal activity rating, SA” value in [8] is reported as 5 (percentage of weeds killed was not less than 80%). Also, in assay [9], the “herbicidal activity rating, BP” value is 3 (percentage of weeds killed was not less than 40% and less than 60%). The “herbicidal activity rating, SM” value in assay [10] is 5 (percentage of weeds killed was not less than 80%). The “herbicidal activity rating, AR” value in assay [11] was 5 (percentage of weeds killed was not less than 80%).
